The subject of assay [1] is SK-MEL-2. Put plainly: Antiproliferative activity against human SK-MEL-2 cells after 72 hrs by MTS assay. As to conditions: SK-MEL-2, 72 h. In kind it is functional, cell-based.
Another assay deals with Daoy. Description: Antiproliferative activity against human DaOY cells after 72 hrs by MTS assay. In kind it is cell-based.
In the next assay the test system is OVCAR-3. Description: Antiproliferative activity against human OVCAR-3 cells after 120 hrs by MTS assay. In kind it is functional, cell-based. As to conditions: OVCAR-3, 120 h.
Another assay relates to HT-29. Description: Antiproliferative activity against human HT-29 cells after 72 hrs by MTS assay. In kind it is functional, cell-based. As to conditions: HT-29, 72 h.
Assay [2] is described as follows: Antiproliferative activity against human LN229 cells after 72 hrs by MTS assay. Format: functional, cell-based. The settings on record: LN-229, 72 h.
The next assay deals with MCF7. Put plainly: Antiproliferative activity against human MCF7 cells after 72 hrs by MTS assay. In kind it is functional, cell-based. The settings on record: MCF7, 72 h.
Another assay deals with A-375. Description: Antiproliferative activity against human A375 cells after 72 hrs by MTS assay. As to conditions: A-375, 72 h. In kind it is functional, cell-based.
Assay [3] relates to SK-MEL-2. Put plainly: Induction of apoptosis in human SK-MEL-2 cells assessed as apoptotic cells at 50 uM after 8 hrs by annexin V assay. In kind it is functional.
In assay [4] the test system is SK-MEL-2. Description: Induction of apoptosis in human SK-MEL-2 cells assessed as necrotic cells at 50 uM after 8 hrs by annexin V assay. Format: functional.
The subject of assay [5] is SK-MEL-2. Description: Induction of apoptosis in human SK-MEL-2 cells assessed as apoptotic cells at 50 uM after 8 hrs by annexin V assay in presence of z-VAD. In kind it is functional.
Assay [6] relates to SK-MEL-2. Put plainly: Induction of apoptosis in human SK-MEL-2 cells assessed as necrotic cells at 50 uM after 8 hrs by annexin V assay in presence of z-VAD. Format: functional.
The test system of assay [7] is SK-MEL-2. Description: Induction of apoptosis in human SK-MEL-2 cells assessed as increase in caspase activation at 5 uM after 8 hrs by homogenous assay relative to control. Format: functional.
Assay [8] concerns SK-MEL-2. Put plainly: Induction of apoptosis in human SK-MEL-2 cells assessed as increase in caspase activation at 50 uM after 8 hrs by homogenous assay relative to control. In kind it is functional.

As for `C=C(C)[C@@H]1CC[C@]2(CO)CC[C@]3(C)[C@H](CC[C@@H]4[C@@]5(C)Cc6cnoc6C(C)(C)[C@@H]5CC[C@]43C)[C@@H]12`, the IC50 is 8 µM in the assay with SK-MEL-2 [1]; 8 µM in the assay with Daoy; 60 µM in the assay on OVCAR-3; 10 µM in the assay with HT-29; greater than 75 µM in [2]; 25 µM with MCF7.

Turning to `CC(C)[C@@H]1CC[C@]2(CO)CC[C@]3(C)[C@H](CC[C@@H]4[C@@]5(C)C=C(C#N)C(=O)C(C)(C)[C@@H]5CC[C@]43C)[C@@H]12`, the IC50 in the assay with SK-MEL-2 [1] was 6 µM; with A-375, 4 µM; in the assay on Daoy it was 9 µM; with OVCAR-3, 8 µM; in the assay with HT-29, 7 µM; in the assay with MCF7, greater than 75 µM.

For `C=C(C)[C@@H]1CC[C@]2(COC3CCCCO3)CC[C@]3(C)[C@H](CC[C@@H]4[C@@]5(C)CC(C#N)C(=O)C(C)(C)[C@@H]5CC[C@]43C)[C@@H]12` (some centres undefined), the IC50 in the assay with SK-MEL-2 [1] was 19 µM; with A-375, 38 µM; in the assay with Daoy it was 29 µM; in the assay with OVCAR-3, greater than 75 µM; with HT-29, greater than 75 µM; in assay [2], greater than 75 µM. In the assay on MCF7, this compound gave an IC50 of 25 µM.

Regarding `C=C(C)[C@@H]1CC[C@]2(C(=O)O)CC[C@]3(C)[C@H](CC[C@@H]4[C@@]5(C)C=C(C#N)C(=O)C(C)(C)[C@@H]5CC[C@]43C)[C@@H]12`, the IC50 was greater than 75 µM in the assay with SK-MEL-2 [1]; greater than 75 µM with A-375; greater than 75 µM in the assay on Daoy; greater than 75 µM in the assay on OVCAR-3; 38 µM in the assay with HT-29; 18 µM in assay [2]. In addition, in the assay with MCF7, the IC50 was greater than 75 µM.

As for `C=C(C)[C@@H]1CC[C@]2(C=O)CC[C@]3(C)[C@H](CC[C@@H]4[C@@]5(C)C=C(C#N)C(=O)C(C)(C)[C@@H]5CC[C@]43C)[C@@H]12`, the IC50 was 40 µM with SK-MEL-2 [1]; 7 µM with A-375; 13 µM with Daoy; greater than 75 µM in the assay with OVCAR-3; 49 µM in the assay with HT-29; greater than 75 µM in assay [2]. Further, in the assay with MCF7, the IC50 was greater than 75 µM.

As to `C=C(C)[C@@H]1CC[C@]2(CO)CC[C@]3(C)[C@H](CC[C@@H]4[C@@]5(C)CC(C#N)C(=O)C(C)(C)[C@@H]5CC[C@]43C)[C@@H]12` (some centres undefined), the IC50 in the assay on SK-MEL-2 [1] is 42 µM; in the assay with A-375, greater than 75 µM; in the assay with Daoy, 44 µM; with OVCAR-3, greater than 75 µM; in the assay on HT-29 it was 72 µM; in assay [2], greater than 75 µM. In the assay on MCF7, this compound registered an IC50 of 68 µM.

On to `C=C(C)[C@@H]1CC[C@]2(COC3CCCCO3)CC[C@]3(C)[C@H](CC[C@@H]4[C@@]5(C)C=C(C#N)C(=O)C(C)(C)[C@@H]5CC[C@]43C)[C@@H]12` (some centres undefined), for which the IC50 in the assay on SK-MEL-2 [1] was 23 µM; in the assay on A-375, 12 µM; in the assay on Daoy, 14 µM; in the assay with OVCAR-3, greater than 75 µM; with HT-29, greater than 75 µM; in assay [2] it was 21 µM. Moreover, the IC50 with MCF7 is greater than 75 µM.

As for `C=C(C)[C@@H]1CC[C@]2(CO)CC[C@]3(C)[C@H](CC[C@@H]4[C@@]5(C)C=C(C#N)C(=O)C(C)(C)[C@@H]5CC[C@]43C)[C@@H]12`, the 50% inhibitory concentration (IC50) was 7 µM in the assay with SK-MEL-2 [1]; 6 µM with A-375; 8 µM with Daoy; 7 µM in the assay on OVCAR-3; 8 µM in the assay on HT-29; 6 µM in assay [2]. This compound also had an IC50 in the assay with MCF7 of 25 µM. Also, the Activity in the assay on SK-MEL-2 [3] is on record as 24%; in the assay on SK-MEL-2 [4] it was 3%; in the assay on SK-MEL-2 [5] it was 7%; in the assay on SK-MEL-2 [6], 4%. The “fold change (FC)” value in the assay with SK-MEL-2 [7] came out at 2; with SK-MEL-2 [8], 8.

On to `CC(C)[C@@H]1CC[C@]2(COC3CCCCO3)CC[C@]3(C)[C@H](CC[C@@H]4[C@@]5(C)CC(C#N)C(=O)C(C)(C)[C@@H]5CC[C@]43C)[C@@H]12` (some centres undefined), for which the IC50 with SK-MEL-2 [1] was 25 µM; with A-375 it was 48 µM; with Daoy, 21 µM; in the assay on HT-29, greater than 75 µM; in [2] it was 45 µM; in the assay on MCF7, greater than 75 µM.

In the case of `CC(C)[C@@H]1CC[C@]2(CO)CC[C@]3(C)[C@H](CC[C@@H]4[C@@]5(C)Cc6cnoc6C(C)(C)[C@@H]5CC[C@]43C)[C@@H]12`, the IC50 is 8 µM in the assay with SK-MEL-2 [1]; 10 µM with A-375; 7 µM in the assay on Daoy; 75 µM in the assay on OVCAR-3; 75 µM in the assay on HT-29; greater than 75 µM in assay [2]. The IC50 with MCF7 was greater than 75 µM.

For the compound `CC(C)[C@@H]1CC[C@]2(C(=O)O)CC[C@]3(C)[C@H](CC[C@@H]4[C@@]5(C)C=C(C#N)C(=O)C(C)(C)[C@@H]5CC[C@]43C)[C@@H]12`, the IC50 with SK-MEL-2 [1] amounted to 59 µM; with A-375 it was 16 µM; in the assay with Daoy, 71 µM; in the assay on OVCAR-3 it was 24 µM; in the assay on HT-29, 18 µM; in assay [2] it was 30 µM. In the assay on MCF7, this compound displayed an IC50 of 59 µM.

For `C=C(C)[C@@H]1CC[C@]2(C(=O)O)CC[C@]3(C)[C@H](CC[C@@H]4[C@@]5(C)CC[C@H](O)C(C)(C)[C@@H]5CC[C@]43C)[C@@H]12` [BETULINIC ACID], the IC50 in the assay on SK-MEL-2 [1] was determined as 33 µM; in the assay on A-375, 51 µM; with Daoy, 31 µM; with OVCAR-3, 59 µM; with HT-29 it was 37 µM; in assay [2], 61 µM. For the same compound, inhibition in the assay with MCF7 was half-maximal at 50 µM (IC50). In addition, the Activity with SK-MEL-2 [7] is listed as 70%. Further, the “fold change (FC)” value in the assay on SK-MEL-2 [8] is on record as 2.6.

These data come from ChEMBL document CHEMBL1153976, “Synthesis and cytotoxicity of 2-cyano-28-hydroxy-lup-1-en-3-ones” (Bioorg Med Chem Lett, 2009).
